The numbers were not newly measured in patent US11878081B1, “Pharmaceutical formulations of tafamidis” (TaP Pharmaceuticals, AG, priority 2022, dated 2024), which cites them from elsewhere.

Structures are written as SMILES. Like-named read-outs stand apart in the source and are kept apart here.

The conditions of data set [1]: as stated by the '116 publication.
For data set [2] the following is noted: 20 mg in 3.0 mL, equilibration 1 h, UHPLC.
The conditions of data set [3]: capsule formulation of Table B/C, 61 mg, pH 6.8 PBS 900 ml, paddle 50 RPM, 37° C.

Turning to `O=C(O)c1ccc2nc(-c3cc(Cl)cc(Cl)c3)oc2c1` [form 4, 2-(3,5-dichlorophenyl)-1,3-benzoxazole-6-carboxylic acid], in data set [1], the stability entry is “unstable”.

Regarding `O=C(O)c1ccc2nc(-c3cc(Cl)cc(Cl)c3)oc2c1` [‘441 patent's tafamidis crystal form 1, 2-(3,5-dichlorophenyl)-1,3-benzoxazole-6-carboxylic acid], in data set [1], the solubility result is on record as “low solubility”. Moreover, the stability result in data set [1] (listed as tafamidis form 1) is “more stable than forms 2, 4, and 6”. For the same molecule, the “concentration of tafamidis in saturated solution (solubility)” value in data set [2] (FaSSIF) was 9.0 µg/mL; in data set [2] (FeSSIF) it was 0.6 µg/mL; in data set [2] (SGF), 1.5 µg/mL. Further, the Cumulative drug release in data set [3] (0 min) is given as 0.0%; in data set [3] (5 min), 14.0%; in data set [3] (10 min), 27.3%; in data set [3] (15 min), 29.1%; in data set [3] (20 min) it was 28.1%; in data set [3] (30 min), 27.6%. Further, the values for the Cumulative drug release in data set [3] (45 min) and in data set [3] (60 min) were 26.8% and 21.8%, respectively.
